# Experimental data as given in a melting point compilation (Tetko et al.; mined from patent text by program, amines drawn as free bases though some values may be those of a salt).
row,SMILES,melting point [°C]
1,N#Cc1ccc2cc(S)ccc2c1,113 to 115
2,CC(C)n1c(=O)nc(-c2ccc3c(c2)CCC3)c2cc3c(cc21)OCO3,73 to 75
3,CCc1nnc2c3c(c(Cl)nn12)CCCC3,93 to 94
4,Brc1ccc2c(c1)N=C(N1CCSCC1)c1cccc3c1N2CC3,165 to 167
5,CC(=O)N[C@@H]1C(O)O[C@H](COC(C)=O)[C@@H](O)[C@@H]1O (some centres not stated),47 to 51
6,CN(CC#N)[C@H](COCc1cc(C(F)(F)F)cc(C(F)(F)F)c1)c1ccccc1,110 to 111
7,O=C(O)C1(CO)CCc2cc(C3CCCCC3)c(Cl)cc21 (configuration not stated),195 to 197
8,C=CC=Cc1cc(Oc2cnc(N)nc2N)c(I)cc1C,195 to 197
9,CCCCCCCCCCCC1Cc2cc(C(=O)O)ccc2N1C (racemic),102 to 104
10,NC(=O)c1ccc(I)c([N+](=O)[O-])c1,152 to 155
11,CCNCC1CCN(c2c(F)cc3c(=O)c(C(=O)O)cn4c3c2OCC4CC)C1 (configuration not stated),221 to 224
12,COCOc1c(-c2cccc(C=CC(=O)O)c2)ccc2c1C(C)(C)CCC2(C)C,188 to 189
13,COC(=O)C(C)(C)Oc1ccc(C(C)=O)cc1,62 to 63
14,CCCc1c(C(=O)C(C)C)c2ccc(C(=O)O)cc2n1Cc1ccccc1I,210
15,C=CCOc1ccc(OC2CCCCO2)c2c1CCC(=O)N2 (configuration not stated),113 to 115
16,NCC1N=C(c2ccccc2F)c2ccccc2NC1=O (racemic),168 to 169
17,CC(=O)NC[C@H]1CN(c2ccc(Br)cn2)C(=O)O1,166 to 168
18,CCOC(=O)c1nn(-c2ccc(OC)cc2)c2c1CCC2,108 to 109
19,O=C(O)C1Cc2c([nH]c3ccccc23)C(CO)N1 (configuration not stated),231 to 233
20,CCN1CCCC1CNC(=O)c1cc(S(N)(=O)=O)cc2c1OCCO2 (configuration not stated),160 to 161
21,CC(C)(F)C1COCc2nc3c(N)nc4c(c3n21)CCCC4 (configuration not stated),196 to 197
22,COc1ccc2c(c1)C(OC(C)C)=C(C(N)=O)S2=O (configuration not stated),168 to 170
23,COc1nc(C(F)(F)F)cc(=O)n1-c1cc(C(=O)N(C)OC)c(Cl)cc1F,119
24,NS(=O)(=O)Oc1cccc([N+](=O)[O-])c1,118 to 120
25,Cn1ccc2cc(Nc3ccncc3)ccc21,202 to 203

row,SMILES,melting point [°C]
1,COc1cn(-c2ccc(I)cc2F)nc(C(C)=O)c1=O,196 to 198
2,CCOC(=O)c1ccccc1C=C(C)C=CC=C(C)CCC=C(C)C,47 to 48
3,CC(C)(C)OC(=O)Nc1ccc(-c2ccoc2)cc1[N+](=O)[O-],105 to 110
4,CNC(=O)CNc1c(C)cccc1C,52 to 54
5,O=C(O)C1CCCC2c3ccccc3CC12 (configuration not stated),138 to 139
6,CC(=O)NCC1CC1c1cccc2nc(C)cn12 (configuration not stated),170 to 171
7,COc1cc(OC)cc(SSc2cc(OC)cc(OC)c2)c1,152 to 160
8,COCc1ncc(OC)c(=O)[nH]1,61
9,O=C(Nc1ccc(Cc2nnn[nH]2)cc1)C(F)(F)C(F)(F)C(F)(F)C(F)(F)C(F)(F)C(F)(F)C(F)(F)C(F)F,188 to 190
10,CCc1cc2c(cc1O)CCC1C2CCC2(C)C(=CCOC)CCC12 (configuration not stated),133 to 134
11,COc1cccc(C(=O)NC2(C(=O)c3cc(C)cc(C)c3)CC2)c1C,174 to 176
12,CC(C)CCN1C(=O)C(NC(=O)Nc2cccc(N(C)C)c2)C(=O)N(CC23CC4CC(CC(C4)C2)C3)c2ccccc21 (configuration not stated),226 to 227
13,O=C(O)COC1=C(C(=O)Nc2cc(Cl)cc(Cl)c2)SC2=NCCCN21,247
14,CC(C)(C)c1ccnc(-c2cc(C(C)(C)C)ccn2)c1,159 to 160
15,COC(CNC(=O)CCN1C(=O)N(C)C(=O)C1(C)C)OC,86.4
16,O=C(O)CCCCCCCCCCCNC(=O)CCCCCCCCCCBr,122
17,COc1cc2c(cc1N)CCCC2,121
18,COc1ccc(C(=O)C=CN(C)C)cc1,82 to 85
19,CCOC(=O)c1c(N)c2cccnc2n(CC)c1=O,205 to 208
20,CCCCNC(=O)C(O[Si](C)(C)C(C)(C)C)C(C)(C)C (configuration not stated),41 to 42
21,Sc1nnc(Cc2ccc(Cl)cc2)o1,115
22,O=C1CN2CCOC2(c2ccccc2Cl)c2cc([N+](=O)[O-])ccc2N1 (configuration not stated),201 to 203
23,COC(=O)c1cccc2c([N+](=O)[O-])cccc12,105
24,CC(=O)c1ccc(/C=C(\C)c2ccc3c(c2)C(C)(C)CCC3(C)C)cc1,148 to 149
25,CN1CCOC(=NO)C1=O,199 to 201

# Second part, the compound after the results:
row,melting point [°C],SMILES
1,290 to 291,CC(C)(C)c1ccc(S(=O)(=O)NCc2ccc(C(=O)O)cc2)cc1
2,267 to 269,Cc1ccc(Nc2nc(-c3c(-c4ccccc4)noc3C)cs2)nc1
3,> 245,CCCCc1nc2c(N)nc3ccccc3c2n1CCNC(=S)Nc1ccc(-c2c3ccc(=O)cc-3oc3cc(O)ccc23)c(C(=O)O)c1
4,61 to 64,CCCc1cc(OCc2ccc(-c3ccccc3-c3nnn(C(c4ccccc4)(c4ccccc4)c4ccccc4)n3)cc2)c(C(=O)OC)c(C)n1
5,132,CC(=O)N1CCC(C)(C)c2c(C)ccc(CCN3CCN(c4nsc5ccccc45)CC3)c21
6,156 to 159,O=C(O)C1Sc2ccccc2-c2ccccc21 (configuration not stated)
7,71 to 75,NCc1cccc(-c2ccc(Br)cc2)n1
8,86 to 88,O=C(O)[C@@H]1CCCN1C(=S)CCc1ccccc1
9,137 to 139,O=C(O)c1cc(-c2ccc(Br)cc2)c(=O)n(Cc2ccc(Cl)cc2Cl)c1
10,90 to 91,Cc1ccccc1Cn1c(=O)on(C(=O)N(c2ccc(Cl)cc2)C(C)C)c1=O
11,204,Nc1ccc(Nc2ccc(S(=O)(=O)CCO)cc2[N+](=O)[O-])cc1S(=O)(=O)O
12,116 to 118,CC1CCN(c2cc(F)cc(C(=O)Nc3ccc(OCCN4CCOCC4)c4ccccc34)c2)CC1
13,238 to 240,O=C(Nc1ccccn1)c1cn(-c2ccccc2)c2ccccc2c1=O
14,150 to 152,Cc1cc(CNC(=O)c2ccnc(N3CCN(Cc4ccc(F)cc4)C3=O)c2)nn1C
15,78 to 79,O=C(CCCCl)N(c1ccccc1)c1ccccc1
16,120,O=C(O)Cc1cc(C(=O)c2c(F)cccc2F)ccc1O
17,196 to 198,CC(C)(C)C(NC(=O)c1ccc(Cl)cc1)NC(=NC#N)Nc1cc(F)cc(F)c1 (configuration not stated)
18,143 to 145,COc1ccc(C(C#Cc2ccccc2)CNC(=O)C(F)(F)F)cc1OC1CCCC1 (racemic)
19,294 to 295,CC(=O)Nc1ccc(NC(=O)c2ccc3c(c2)NC(=O)C3(C)C)cc1
20,114,COC(=O)c1cc(S(=O)(=O)c2ccc(C)cc2)cc(OC)c1OC
21,217 to 220,O=C(CCC(F)(F)F)c1c(O)c2cccnc2n(-c2ccccc2)c1=O
22,174 to 177,CSc1ccc(C[C@@H](NC(=O)OCc2ccccc2)[C@H](O)C(=O)O)cc1
23,154 to 157,C[C@@H]1[C@@H](NS(=O)(=O)c2ccc(F)cc2)CN1C(c1ccc(Cl)cc1)c1ccc(Cl)cc1
24,122 to 125,CC(C)[C@H](NC(=O)OCc1ccccc1)C(=O)N[C@@H](Cc1ccccc1)C(=O)CSCc1ccco1

row,melting point [°C],SMILES
1,142 to 143,CCc1cccc(CC(=O)O)c1OCCCc1cn(-c2ccc(Cl)cn2)nc1C(C)C
2,235 to 237,CCN1C(C(=O)Nc2coc3ccccc3c2=O)C(=O)c2ccccc2S1(=O)=O (configuration not stated)
3,53,COc1ccc(CN2C(=O)C(C)(c3cc(COCCO)ccc3Cl)c3cc(Cl)ccc32)c(OC)c1 (configuration not stated)
4,231 to 233,O=C(O)C=C[C@H](Cc1ccc(-c2ccccc2)cc1)NCP(=O)(O)O
5,297 to 299,COC(=O)c1ccc(C(=O)NCCNC(=O)c2ccc(C(=O)OC)cc2)cc1
6,159 to 161,CC[C@H](C)[C@H](OCc1ccccc1)[C@H]1[C@H]([N+](=O)[O-])[C@H](C2CC2)N[C@@H]1C(=O)O
7,133 to 135,CC(=O)c1ccc(OCCCOc2ccc(C(=O)C(=O)O)cc2)cc1O
8,252,COc1ccc(C(=O)Nc2c(Cl)cncc2Cl)c2c1oc1ccc(NC(C)=O)cc12
9,73 to 74.8,CCCN(C)CCCCC1CCN(S(=O)(=O)c2ccc(C(F)(F)F)cc2)CC1
10,167 to 170,CCCc1nc2ccccc2c(C(=O)O)c1Oc1ccc(-c2ccccc2-c2nnn(C(c3ccccc3)(c3ccccc3)c3ccccc3)n2)cc1
11,190 to 194,CCS(=O)(=O)c1ccc(-n2cncc2-c2ccc([N+](=O)[O-])cc2)cc1
12,235 to 237,COc1ccc2c(c1OC)CCN(CCc1ccc(NC(=O)c3cccc4c(=O)c5cccc(OC)c5[nH]c34)cc1)C2
13,141,COc1cccc(CCN2C(=O)c3c(F)ccc(F)c3C2(O)c2ccccc2)c1 (configuration not stated)
14,256 to 261,CCNC(=O)c1ccc2oc(C(=O)C(Cc3ccccc3)NC(=O)Cn3c(-c4ccc(F)cc4)ncc(NC(=O)OCc4ccccc4)c3=O)nc2c1 (configuration not stated)
15,190 to 194,CCCN(CCC)C1Cc2cc3c(cc2C1)C(=O)N(Cc1ccc(S(N)(=O)=O)cc1)C3=O
16,112 to 113,CCCN(CCC)C(=O)C(CCC(=O)NC)NC(=O)C=Cc1ccco1 (configuration not stated)
17,179 to 180,CCOc1ccc(N2CCN(Cc3c[nH]c4ncccc34)CC2)cc1
18,221,N=C(NO)c1ccc(-c2ccc([N+](=O)[O-])c(C(F)(F)F)c2)o1
19,108,CCCc1nc(SC(F)F)c(C(=O)O)n1Cc1ccc(-c2ccccc2S(=O)(=O)NC(=O)NCCCc2ccccc2)cc1
20,245 to 247,COc1nc2ccccc2n(-c2ccc(Cl)cc2)c1=O
21,112 to 114,CCCCC(Cc1ccc(OCCNC(=O)c2ccc(N3CCCCC3)cc2)cc1)C(=O)O (configuration not stated)
22,170 to 172,CN(C)c1cccc(C(=O)N2CCC3(CC2)CSC2=C(O3)c3ccccc3C(=O)C2=O)c1
23,167 to 169,O=C(Nc1ccc([N+](=O)[O-])c(C(F)(F)F)c1)c1ccccc1SSc1ccccc1C(=O)Nc1ccc([N+](=O)[O-])c(C(F)(F)F)c1
